Data from patent publication US5948931A (priority 1997, dated 1999).
Counter-ions that a name gives are not always drawn.

Legend:
Assay type in all cases: physicochemical
[1] = Kinetic measurements of hydrolysis (release of p-nitrophenoxide), effect of Mg2+; settings: for reaction order of hydrolysis: pH 8.5, 25° C.
Excerpt: Kinetic Measurements of the Hydrolysis of E-19.

[2] = Stability / hydrolysis-fragmentation of E-16 (anilinium salt E-19) in water; settings: anilinium salt, storage
Method: Stability of E-19. These experiments were carried out in 5 mm glass NMR tubes at 22° C., concentration of E-4 0.1% (w/v).

[3] = Stability of DCHA+ salts 3 heated in different solvents (31P NMR); settings: conditions similar to refluxing AN
Method: Stability of DCHA^+ Salts 3 Heated in Different Solvents. 40 mg 3 (E or Z) was heated in 5 ml of alcohol mixture, H2 O or acetonitrile. Reaction progress was monitored by ^31 P NMR spectroscopy.

O=C(Oc1ccc([N+](=O)[O-])cc1)/C(=N\O)P(=O)(O)O [E-19, Anilinium Salt of p-Nitrophenyl (E)-(Hydroxyimino)(dihydroxyphophinyl)acetate]
reaction order of hydrolysis [1]: pseudo-first order | storage stability [2]: stable to storage

COP(=O)(O)C(=NO)c1ccccc1 [methyl α-(hydroxyimino)benzylphosphonate anion, reference compound]
thermal stability [3]: thermally stable

CC(=O)Oc1ccc([N+](=O)[O-])cc1 [p-nitrophenyl acetate, reference compound]
enhancement of hydrolysis rate by MgCl2 (factor) ([1]; 0.2 M MgCl2, pH 8.5, 25° C.): not altered significantly | reaction order of hydrolysis [1]: pseudo-first order
